This note sets out measurements from ChEMBL document CHEMBL1145763, “Design, synthesis and photochemical properties of caged bile acids” (Bioorg Med Chem Lett, 2003).

≈ marks a conversion by molar mass, not a printed value.

This data set in a line: Solubility in 100 mM Tris pH(8.5)/ 30% PEG 6000/200 mM NaOAc. It counts as physicochemical.
Turning to `C[C@H](CCC(=O)O)[C@H]1CC[C@H]2[C@@H]3[C@H](O)CC4C[C@H](OCc5ccccc5[N+](=O)[O-])CC[C@]4(C)[C@H]3CC[C@]12C` (some centres undefined), the concentration in solution (solubility) came to 5000 µM (≈ 2640 µg/mL). With `C[C@H](CCC(=O)O)[C@H]1CC[C@H]2[C@@H]3[C@H](O)CC4C[C@H](OCc5ccccc5[N+](=O)[O-])CC[C@]4(C)[C@H]3C[C@H](O)[C@]12C` (some centres undefined) the figure was 2000 µM (≈ 1090 µg/mL); with `C[C@H](CCC(=O)NCC(=O)O)[C@H]1CC[C@H]2[C@@H]3[C@H](O)CC4C[C@H](OCc5ccccc5[N+](=O)[O-])CC[C@]4(C)[C@H]3CC[C@]12C` (some centres undefined), 4000 µM (≈ 2340 µg/mL); with `COc1cc(CO[C@@H]2CC[C@@]3(C)C(C2)C[C@@H](O)[C@H]2[C@@H]4CC[C@H]([C@H](C)CCC(=O)O)[C@@]4(C)[C@@H](O)C[C@@H]23)c([N+](=O)[O-])cc1OC` (some centres undefined), 1000 µM (≈ 604 µg/mL).
